Drawing on PubChem BioAssay AID1919001 (Molecular Pharmacology Branch, DTP, NCI, 2023), this text covers IC50 and viability, T/C for 4 compounds.

“And” between values parts separate entries of the source, which are not always exact repeats. Equal values may be shown once.

In the experiment the test system is 699152-130-R-J1-PDC complex spheroid growth. Put plainly: Anticancer human tumor 699152-130-R-J1-PDC patient-derived pancreatic carcinoma cell line growth inhibition [AhR]. The settings on record: for viability, T/C: stronger effect = lower value. The source says: Multicellular complex tumor spheroid response to aryl hydrocarbon receptor antagonists in combination with a variety of drugs and investigational agents in selected tumor cell lines
The current study was undertaken to assess response to aryl hydrocarbon receptor antagonists in combination with standard-of-care drugs and investigational agents in solid tumor complex spheroid models. Complex spheroids include a stromal component modeled by human endothelial cells (HUVEC) and fibroblasts modeled by human mesenchymal stem cells (MSCs). The concentration ranges selected for each drug and investigational agent were based upon clinically achievable concentrations if the clinical Cmax of the agent was known.
Compounds. The drugs and investigational agents: BAY 2416964 (NSC825713), GNF351 (NSC835774), CH-223191 (NSC835775), CPI-455 (NSC825282), aza-TdCyd (NSC777586), decitabine (NSC127716), belinostat (NSC758774), entinostat (NSC756642), pevonedistat (NSC761192), tazemetostat (NSC777109), talazoparib (NSC765396), olaparib (NSC753686), selinexor (NSC780203), nedisertib (M3814, NSC802822), bortezomib (NSC756655), venetoclax (NSC766270), doxorubicin (NSC123127), elimusertib (BAY189344, NSC800525), ceralasertib (AZD6738, NSC777638), TAK-243 (NSC785004), alisertib (NSC759677), etoposide (NSC141540), topotecan (NSC609699), eribulin (NSC707389), gemcitabine (NSC613327), carboplatin (NSC241240), cisplatin (NSC119875), and SN-38 (NSC673596) were obtained from the National Cancer Institute (NCI) Developmental Therapeutics Program Chemical Repository (32). The FDA-approved anticancer drug set is available from the Developmental Therapeutics Program at https://dtp.cancer.gov/organization/dscb/obtaining/available plates.htm. […] The stock solutions were prepared in dimethyl sulfoxide (DMSO, Sigma-Aldrich, St. Louis, MO, cat. D2650), except for the platinum compounds which were prepared in saline (Quality Biological, Gaithersburg, MD, cat. 114-055-101), at 800-fold the tested concentration and stored at -70 degrees C prior to their use. All drugs and investigational agents were tested over a range starting from a high concentration at or near the clinical Cmax and decreasing in half-log increments. If the clinical Cmax for an agent had not been determined, the highest concentration tested was 10 microM (Table 1).
Cell Culture. All cells were maintained in an incubator at 37 degrees C and 5% CO2 with 95% humidity. The PDC lines were cultured according to standard operating procedures established by the NCI PDMR (https://pdmr.cancer.gov). Briefly, all PDCs were thawed and cultured in Matrigel-coated flasks prepared with a working solution of 1X Ham's F-12 nutrient mix, without supplementation (Invitrogen, Waltham, MA, cat. 11765054), 100 U/mL penicillin-streptomycin (Invitrogen, cat. 15140122), and 2.5% Matrigel (Corning Inc., Corning, NY, cat. 354248) for the first three passages. All PDCs were cultured in complete DMEM/F-12 media containing advanced DMEM/F-12 (Invitrogen, cat. 12634028), 4.9% defined fetal bovine serum, heat inactivated (HyClone Laboratories Inc., Logan, UT, cat. SH30070.03HI), 389 ng/mL hydrocortisone (Sigma-Aldrich, cat. H4001), 9.7 ng/mL human EGF recombinant protein (Invitrogen, cat. PHG0313), 23.4 microg/mL adenine (Sigma-Aldrich, cat. A2786), 97.3 U/mL penicillin-streptomycin (Invitrogen, cat. 15140122), 1.9 mM L-glutamine (Invitrogen, cat. 25030081), and 9.7 microM Y-27632 dihydrochloride (Tocris Bioscience, Bristol, United Kingdom, cat. 1254). The PDCs were cultured in complete DMEM/F12 media without 10 microM Y-27632 dihydrochloride for at least two passages prior to the screen. The established cell lines NCI-H1341 and […] were cultured in DMEM/F-12, HEPES (Invitrogen, cat. 11330032), 5% defined fetal bovine serum (HyClone Laboratories Inc., cat. SH30070.03), ITS premix universal culture supplement [insulin (5 microg/mL), transferrin (5 microg/mL), and selenious acid (5 ng/mL)] […]

Where [1] appears, read: curve of first compound, second compound 0.1 µM.
Setting [2] is: curve of first compound, second compound 0.316 µM.
Where [3] appears, read: curve of first compound, second compound 1 µM.
The mark [4] stands for this setting: curve of first compound, second compound 3.16 µM.
The mark [5] stands for this setting: curve of first compound, second compound 10 µM.
[6] abbreviates: second compound 0.1 µM, first compound 0.0316 µM.
Setting [7] is: second compound 0.1 µM, first compound 0.1 µM.
Setting [8] is: second compound 0.1 µM, first compound 0.316 µM.
Where [9] appears, read: second compound 0.1 µM, first compound 1 µM.
[10] abbreviates: second compound 0.316 µM, first compound 0.0316 µM.
Setting [11] is: second compound 0.316 µM, first compound 0.1 µM.
Setting [12] is: second compound 0.316 µM, first compound 0.316 µM.
Where [13] appears, read: second compound 0.316 µM, first compound 1 µM.
[14] abbreviates: second compound 1 µM, first compound 0.0316 µM.
[15] abbreviates: second compound 1 µM, first compound 0.1 µM.
The mark [16] stands for this setting: second compound 1 µM, first compound 0.316 µM.
[17] abbreviates: second compound 1 µM, first compound 1 µM.
Where [18] appears, read: second compound 3.16 µM, first compound 0.0316 µM.
Setting [19] is: second compound 3.16 µM, first compound 0.1 µM.
Where [20] appears, read: second compound 3.16 µM, first compound 0.316 µM.
Setting [21] is: second compound 3.16 µM, first compound 1 µM.
Setting [22] is: second compound 10 µM, first compound 0.0316 µM.
The mark [23] stands for this setting: second compound 10 µM, first compound 0.1 µM.
[24] abbreviates: second compound 10 µM, first compound 0.316 µM.
[25] abbreviates: second compound 10 µM, first compound 1 µM.
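Further: compound exposure lasted 7 days after spheroids had grown for 3 days.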

For orientation: IC50 means the concentration at which inhibition is half-maximal. As usually defined, the viability, T/C is the ratio of treated to control. `Nc1ncn(C2CC(O)C(CO)O2)c(=O)n1` (centres undefined) + Cc1cncc(-c2nc(NCCc3c[nH]c4ccccc34)c3ncn(C(C)C)c3n2)c1: the IC50 under setting [1] was above 1 µM; the IC50 under setting [2] was above 1 µM; the IC50 under setting [3] was above 1 µM; the IC50 under setting [4] is above 1 µM; the IC50 under setting [5] was below 0.00316 µM. For the same compound, the viability, T/C was 109% (second compound 0.1 µM, first compound 0.00316 µM); 88% (second compound 0.1 µM, first compound 0.01 µM); 90.4% under setting [6]; 98.4% under setting [7]; 85.4% under setting [8]; 87.8% under setting [9]. The viability, T/C is 99.3% (second compound 0.316 µM, first compound 0.00316 µM); 90.8% (second compound 0.316 µM, first compound 0.01 µM); 104% under setting [10]; 86.5% under setting [11]; 96.3% under setting [12]; 97.2% under setting [13]. In addition, the viability, T/C was 106% (second compound 1 µM, first compound 0.00316 µM); 115% (second compound 1 µM, first compound 0.01 µM); 99.6% under setting [14]; 97.9% under setting [15]; 110% under setting [16]; 92.2% under setting [17]. The viability, T/C reads like this: (second compound 3.16 µM, first compound 0.00316 µM) 95%; (second compound 3.16 µM, first compound 0.01 µM) 87.1%; under setting [18], 111%; under setting [19], 100%; under setting [20], 97.6%; under setting [21], 93.9%. Further, the viability, T/C reads like this: (second compound 10 µM, first compound 0.00316 µM) 0.96%; (second compound 10 µM, first compound 0.01 µM) 2.37%; under setting [22], 0.78%; under setting [23], 0.82%; under setting [24], 1.11%; under setting [25], 5.98%.
Consider `COc1ccc([C@@H](O)c2cc(-c3ncnc4cc(N5CCOCC5)ccc34)c(F)cc2Cl)nn1`, for which the viability, T/C was 94.1% and 90.8% and 102% (compound 0.0316 µM); 93.3% and 98.1% and 115% (compound 0.1 µM); 93.6% and 91.3% and 90.6% (compound 0.316 µM); 79.1% and 78.4% and 71.7% (compound 1 µM); 60.8% and 57.4% and 59.3% (compound 3.16 µM); 33.6% and 28.5% and 30.6% (compound 10 µM). The IC50 (curve of compound) is 4.91 µM and 4.15 µM and 3.98 µM.
For the compound `O=C(C=Cc1cccc(S(=O)(=O)Nc2ccccc2)c1)NO` + CC(CO)NC(=O)c1cc(-c2ccc(Cl)cc2)nn(-c2cnn(C)c2)c1=O, the IC50 runs as follows: under setting [1], above 10 µM; under setting [2], above 10 µM; under setting [3], above 10 µM; under setting [4], above 10 µM; under setting [5], above 10 µM. Besides, the viability, T/C is 102% under setting [6]; 102% under setting [7]; 111% under setting [8]; 112% under setting [9]; 96.8% (second compound 0.1 µM, first compound 3.16 µM); 79.1% (second compound 0.1 µM, first compound 10 µM). The viability, T/C runs as follows: under setting [10], 92.8%; under setting [11], 107%; under setting [12], 111%; under setting [13], 106%; (second compound 0.316 µM, first compound 3.16 µM) 102%; (second compound 0.316 µM, first compound 10 µM) 76.2%. In addition, the viability, T/C was 90.2% under setting [14]; 96.8% under setting [15]; 104% under setting [16]; 101% under setting [17]; 94.3% (second compound 1 µM, first compound 3.16 µM); 82.6% (second compound 1 µM, first compound 10 µM). Moreover, the viability, T/C reads like this: under setting [18], 84.2%; under setting [19], 83.8%; under setting [20], 93.9%; under setting [21], 95.4%; (second compound 3.16 µM, first compound 3.16 µM) 84%; (second compound 3.16 µM, first compound 10 µM) 83.9%. For the same compound, the viability, T/C was 85% under setting [22]; 95.4% under setting [23]; 81.7% under setting [24]; 89.4% under setting [25]; 90.5% (second compound 10 µM, first compound 3.16 µM); 79.4% (second compound 10 µM, first compound 10 µM).
For the compound `COc1cc(Nc2ncc3c(n2)-c2ccc(Cl)cc2C(c2c(F)cccc2OC)=NC3)ccc1C(=O)O`, the viability, T/C is 97.6% and 87.1% and 94% (compound 0.0316 µM); 71.4% and 74.1% and 85.8% (compound 0.1 µM); 80.8% and 74.1% and 72% (compound 0.316 µM); 60.1% and 59.5% and 65.4% (compound 1 µM); 58.4% and 63% and 64.4% (compound 3.16 µM); 55.9% and 54.8% and 60.7% (compound 10 µM). For the same compound, under “curve of compound”, the IC50 is above 10 µM.
